Assay results published in patent US20140314791A1, “METHODS OF TREATING CANCER” (DANA-FARBER CANCER INSTITUTE, INC., priority 2012, published 2014).

Tests used:
Lkb1-null cells = assay: IdU pulse-labeling after Dtymk knockdown, Lkb1-null; type: cell-based, mouse; details: for proportion of cells labeled with IdU: mean
Protocol: (§1) (E) Lkb1-wt and Lkb1-null cells in 6-well plates were transduced with shDtymk-1 or shGFP. Two sets of the cells were plated into multiple chamber slides: one was 2 days and the other was 3 days post transduction. After overnight culturing, the cells were labeled with 100 μM IdU for 20 min then fixed for indirect immunofluorescence staining with anti-BrdU. The data represent mean±SD for 200˜300 cells. Representative merged images of BrdU (red) and DAPI (blue) in the indicated cells are shown (F).
(§2) The lower expression of DTYMK in Lkb1-null cells causes the cells to be in jeopardy of DNA damage. To investigate how further knockdown of Dtymk and the consequent decrease in the dTTP pool could affect DNA metabolism, IdU pulse-labeling in Lkb1-wt and Lkb1-null cells was performed 2.5 and 3.5 days post-transduction with shDtymk-1. […] The representative images of Lkb1-wt and Lkb1-null cells co-stained for IdU and DAPI are shown (FIG. 5F). In addition, an overall lower proportion of labeled Lkb1-null than Lkb1-wt cells (43.1% vs. 57.7%) was observed, which may be related to the lower dNTP levels in Lkb1-null cells.

Lkb1-wt cells [1] = assay: Array-based viral infection and cell proliferation assay (validation), Lkb1-wt; set-up: species or system mouse; details: 5 days post infection, alamarBlue
Protocol: (C) Validation study. Relative viability of Lkb1-wt and Lkb1-null cells infected with 340 individual hairpins for 5 days. Genes of interest are highlighted by the colors indicated.
For array-based viral infection and assessment of proliferation, 2.5 μl virus was mixed with 250 cells in 100 μl medium containing 8 μg/ml polybrene per well in 96-well plates. The plates were spun at 2250 rpm/37° C. for 30 min. Immediately after spinning, supernatants were gently aspirated off and 100 μl fresh medium was added to each well of the 96-well plates. After 2 days incubation, medium was gently aspirated off and 100 fresh medium containing 3 μg/ml puromycin was added to each well of the 96-well plates. The plates were back to culture for additional 3 days and then the viable cells were monitored by alamarBlue (Invitrogen) assay according to manufacturer's instructions.
To identify Lkb1-null-selective essential genes, a synthetic lethal screen was performed using a pooled 40K murine shRNA lentiviral library for each of the Lkb1-wt and Lkb1-null cell lines described above. Relative abundance of shRNAs in each cell line sample was determined by deep-sequencing analysis, and for every shRNA, a log 2 Fold Change (log 2FC) value was calculated from the difference in relative abundance at a late time point after infection versus the initial shRNA-infected sample. An unsupervised hierarchical clustering analysis of the ranked hairpins from the triplicate pooled shRNA library screens of Lkb1-wt and Lkb1-null mouse cancer cells is shown in FIG. 1A. […] The ranked hairpins were collapsed by using two methods, a RIGER analysis (KS t-test based statistics) and a weighted second best analysis to rank genes that selectively impaired proliferation/viability in Lkb1-null cells. A union of 344 genes, identified by the top 100 individual hairpins for 88 genes (Table 1) and the top 200 genes from both the KS (Table 2) and weighted second best (Table 3), was nominated as the initial prioritized list (FIG. 1B). 340 shRNAs, targeting 70 candidate genes from this prioritized list, were chosen for validation (Table 4). The 70 genes consisted of the top 10 candidates from the KS analysis, as well as 60 others involved in a range of biological processes in an attempt to represent all biological categories in the validation process. Validation was performed in an array format with an assay of relatively short duration (5 days post infection) compared to the primary pooled screen (28 days), which should be a more stringent selection, as it required the anti-proliferative effects to manifest in a short time period. […] Dtymk, Check1, and Pdhb are the top 3 candidate genes, each with 3 hairpins that scored in the validation assay (FIG. 1C).

[2] = test system: Lkb1-null t2, t4, and t5 cells; assay: dTTP rescue of shDtymk growth phenotype; type: cell-based, mouse; details: without additional dTTP, 3 days
Protocol: (B) Morphology of Lkb1-null t2, t4, and t5 cells transduced with shGFP or shDtymk-1 and then cultured with or without additional 150 μM dTTP in medium for 3 days.
Next it was determined whether adding dTTP to the media could rescue cell death after Dtymk knockdown. Three Lkb1-null cell lines were transduced with shGFP or shDtymk-1 and then selectively cultured in puromycin medium in the presence or absence of 150 μM dTTP for 3 days (Taricani et al., 2010). […] Expression of DTYMK in the shDtymk-1 cells was not determined because the remaining cells were too few for RNA and protein extraction (FIG. 4B).

Dtymk = assay: QPCR analysis of Dtymk knockdown in Lkb1-wt 634 cells; details: normalized to shGFP
Lkb1-wt cells [3] = assay: IdU pulse-labeling after Dtymk knockdown, Lkb1-wt; type: cell-based, mouse; details: for proportion of cells labeled with IdU: mean
Protocol: as §1, §2

shDtymk-1: shRNA hairpin CAAGCTTCTGAATTCCTACTT targeting Mouse Dtymk
proportion of cells labeled with IdU (Lkb1-null cells; day 2.5 post infection): 17.2%
proportion of cells labeled with IdU (Lkb1-null cells; day 3.5 post infection): 5.8%
drop of proportion of IdU-labeled cells (Lkb1-null cells; in 3.5 days): 86.5%
WT ave-GR (Lkb1-wt cells [1]): 0.53
growth of shDtymk-transduced Lkb1-null cells [2]: grew poorly
mRNA remaining (by qPCR) (Dtymk): 20.00%
proportion of cells labeled with IdU (Lkb1-wt cells [3]; day 2.5 post infection): 46.3%
proportion of cells labeled with IdU (Lkb1-wt cells [3]; day 3.5 post infection): 22.3%
drop of proportion of IdU-labeled cells (Lkb1-wt cells [3]; in 3.5 days): 61.2%
